# Measured values published in PubChem BioAssay (NCI).
#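 Where inhibition never reached the appropriate level, the endpoint shown equals the highest concentration tested. Otherwise, values were interpolated linearly from a five-concentration, 48-hour dose response in 96-well plates. TGI denotes the concentration required for complete inhibition of growth.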
# Columns and labels:
# Test in all cases: growth of human tumour cells (NCI), 48 h
# [1] = tested on: 786-0 renal
# [2] = tested on: A498 renal
# [3] = tested on: A549 NSCLC
# [4] = tested on: ACHN renal
# [5] = tested on: BT-549 breast
# [6] = tested on: CAKI-1 renal
# [7] = tested on: CCRF-CEM leukemia
# [8] = tested on: COLO 205 colon
# [9] = tested on: DU-145 prostate
# [10] = tested on: EKVX NSCLC
# [11] = tested on: HCC-2998 colon
# [12] = tested on: HCT-116 colon
# [13] = tested on: HCT-15 colon
# [14] = tested on: HL-60(TB) leukemia
# [15] = tested on: HOP-62 NSCLC
# [16] = tested on: HOP-92 NSCLC
# [17] = tested on: HS 578T breast
# [18] = tested on: HT29 colon
# [19] = tested on: IGROV1 ovarian
# [20] = tested on: K-562 leukemia
# [21] = tested on: KM12 colon
# [22] = tested on: LOX IMVI melanoma
# [23] = tested on: M14 melanoma
# [24] = tested on: MALME-3M melanoma
# [25] = tested on: MCF7 breast
# [26] = tested on: MDA-MB-231 breast
# [27] = tested on: MDA-MB-435
# [28] = tested on: MDA-N
# [29] = tested on: MOLT-4 leukemia
# [30] = tested on: NCI-H226 lung
# [31] = tested on: NCI-H23 lung
# [32] = tested on: NCI-H460 lung
# [33] = tested on: NCI-H522 lung
# [34] = tested on: NCI/ADR-RES ovarian
# [35] = tested on: OVCAR-3 ovarian
# [36] = tested on: OVCAR-4 ovarian
# [37] = tested on: OVCAR-5 ovarian
# [38] = tested on: OVCAR-8 ovarian
# [39] = tested on: PC-3 prostate
# [40] = tested on: RPMI-8226 leukemia
# [41] = tested on: RXF 393 renal
# [42] = tested on: SF-268 CNS
# [43] = tested on: SF-295 CNS
# [44] = tested on: SF-539 CNS
# [45] = tested on: SK-MEL-2 melanoma
# [46] = tested on: SK-MEL-28 melanoma
# [47] = tested on: SK-MEL-5 melanoma
# [48] = tested on: SK-OV-3 ovarian
# [49] = tested on: SN12C renal
# [50] = tested on: SNB-19 CNS
# [51] = tested on: SNB-75 CNS
# [52] = tested on: SR leukemia
# [53] = tested on: SW-620 colon
# [54] = tested on: T-47D breast
# [55] = tested on: TK-10 renal
# [56] = tested on: U251 CNS
# [57] = tested on: UACC-257 melanoma
# [58] = tested on: UACC-62 melanoma
# [59] = tested on: UO-31 renal
compound,measurement,setting,value
CCOC(=O)/C=C(\C(=O)OCC)n1cnc2c(N)ncnc21,TGI,[1],10.2 µM
same,TGI,[2],17.7 µM
same,TGI,[3],32.2 µM
same,TGI,[4],18.5 µM
same,TGI,[5],27.3 µM
same,TGI,[6],2.86 µM
same,TGI,[7],4.51 µM
same,TGI,[8],4.6 µM
same,TGI,[9],29.1 µM
same,TGI,[10],30.7 µM
same,TGI,[11],30.2 µM
same,TGI,[12],12.3 µM
same,TGI,[13],12.2 µM
same,TGI,[14],2.78 µM
same,TGI,[15],39.8 µM
same,TGI,[16],7.12 µM
same,TGI,[17],51.5 µM
same,TGI,[18],23.1 µM
same,TGI,[19],26.7 µM
same,TGI,[20],5.52 µM
same,TGI,[21],30.5 µM
same,TGI,[22],11.9 µM
same,TGI,[23],22.7 µM
same,TGI,[24],15.8 µM
same,TGI,[25],11.9 µM
same,TGI,[26],21.8 µM
same,TGI,[27],24.7 µM
same,TGI,[28],29.3 µM
same,TGI,[29],6.89 µM
same,TGI,[30],13 µM
same,TGI,[31],31.8 µM
same,TGI,[32],38.7 µM
same,TGI,[33],6.09 µM
same,TGI,[34],37 µM
same,TGI,[35],21.4 µM
same,TGI,[36],> 48.7 µM
same,TGI,[37],14 µM
same,TGI,[38],18.1 µM
same,TGI,[39],26.1 µM
same,TGI,[40],5.4 µM
same,TGI,[41],26.4 µM
same,TGI,[42],37.6 µM
same,TGI,[43],32.1 µM
same,TGI,[44],29.3 µM
same,TGI,[45],30.7 µM
same,TGI,[46],27.8 µM
same,TGI,[47],28.6 µM
same,TGI,[48],32 µM
same,TGI,[49],10.8 µM
same,TGI,[50],30 µM
same,TGI,[51],26 µM
same,TGI,[52],4.25 µM
same,TGI,[53],8.49 µM
same,TGI,[54],14 µM
same,TGI,[55],17.3 µM
same,TGI,[56],20.8 µM
same,TGI,[57],27.8 µM
same,TGI,[58],23.8 µM
same,TGI,[59],30 µM
COc1ccc(N2CCN(Cc3c(C(C)=O)[n+](=O)c4ccccc4n3[O-])CC2)cc1,TGI,[1],> 100 µM
same,TGI,[2],> 100 µM
same,TGI,[3],> 100 µM
same,TGI,[4],> 100 µM
same,TGI,[5],53.3 µM
same,TGI,[6],> 100 µM
same,TGI,[7],> 100 µM
same,TGI,[8],> 100 µM
same,TGI,[9],> 100 µM
same,TGI,[10],> 100 µM
same,TGI,[11],> 100 µM
same,TGI,[12],> 100 µM
same,TGI,[13],> 100 µM
same,TGI,[14],> 100 µM
same,TGI,[15],> 100 µM
same,TGI,[16],> 100 µM
same,TGI,[17],> 100 µM
same,TGI,[18],> 100 µM
same,TGI,[19],> 100 µM
same,TGI,[20],> 100 µM
same,TGI,[21],> 100 µM
same,TGI,[22],> 100 µM
same,TGI,[23],> 100 µM
same,TGI,[24],60.6 µM
same,TGI,[25],> 100 µM
same,TGI,[26],> 100 µM
same,TGI,[27],> 100 µM
same,TGI,[28],> 100 µM
same,TGI,[30],> 100 µM
same,TGI,[31],> 100 µM
same,TGI,[32],> 100 µM
same,TGI,[33],> 100 µM
same,TGI,[34],> 100 µM
same,TGI,[35],> 100 µM
same,TGI,[36],> 100 µM
same,TGI,[37],> 100 µM
same,TGI,[38],> 100 µM
same,TGI,[39],> 100 µM
same,TGI,[40],> 100 µM
same,TGI,[41],83.4 µM
same,TGI,[42],> 100 µM
same,TGI,[43],> 100 µM
same,TGI,[45],> 100 µM
same,TGI,[46],> 100 µM
same,TGI,[47],> 100 µM
same,TGI,[48],> 100 µM
same,TGI,[49],> 100 µM
same,TGI,[50],> 100 µM
same,TGI,[51],> 100 µM
same,TGI,[52],> 100 µM
same,TGI,[53],> 100 µM
same,TGI,[54],> 100 µM
same,TGI,[55],67.5 µM
same,TGI,[56],> 100 µM
same,TGI,[57],> 100 µM
same,TGI,[58],> 100 µM
same,TGI,[59],> 100 µM
O=C1NC(N/N=C/c2ccccc2)=N/C1=C\c1cccs1,TGI,[1],44.6 µM
same,TGI,[2],28 µM
same,TGI,[3],> 100 µM
same,TGI,[4],33.5 µM
same,TGI,[5],33.6 µM
same,TGI,[6],33.3 µM
same,TGI,[7],> 75.8 µM
same,TGI,[8],19.9 µM
same,TGI,[9],56.5 µM
same,TGI,[10],47.3 µM
same,TGI,[12],36.3 µM
same,TGI,[13],48.5 µM
same,TGI,[14],36.7 µM
same,TGI,[15],37.8 µM
same,TGI,[16],32.4 µM
same,TGI,[17],9.94 µM
same,TGI,[18],> 55.3 µM
same,TGI,[19],34.4 µM
same,TGI,[20],> 80.3 µM
same,TGI,[21],> 70.9 µM
same,TGI,[22],23.4 µM
same,TGI,[23],> 100 µM
same,TGI,[24],27.8 µM
same,TGI,[25],46.5 µM
same,TGI,[26],38.7 µM
same,TGI,[27],34.6 µM
same,TGI,[28],> 25.2 µM
same,TGI,[29],> 92.3 µM
same,TGI,[30],25.8 µM
same,TGI,[31],40.7 µM
same,TGI,[32],> 100 µM
same,TGI,[33],5.61 µM
same,TGI,[34],37.6 µM
same,TGI,[35],33.9 µM
same,TGI,[36],> 68.9 µM
same,TGI,[37],70.8 µM
same,TGI,[38],29.3 µM
same,TGI,[39],26.7 µM
same,TGI,[40],> 41 µM
same,TGI,[41],40.7 µM
same,TGI,[42],30.3 µM
same,TGI,[43],34.6 µM
same,TGI,[44],26.6 µM
same,TGI,[45],20.6 µM
same,TGI,[46],37.7 µM
same,TGI,[47],20.7 µM
same,TGI,[48],39.1 µM
same,TGI,[49],46.4 µM
same,TGI,[50],> 87.3 µM
same,TGI,[51],51.8 µM
same,TGI,[52],> 100 µM
same,TGI,[53],> 47.5 µM
same,TGI,[54],> 100 µM
same,TGI,[55],71.5 µM
same,TGI,[56],32.8 µM
same,TGI,[57],> 100 µM
same,TGI,[58],38 µM
same,TGI,[59],48.7 µM
